Reference: patent publication US20160256398A1 (H. Lundbeck A/S, priority 2009, published 2016)
“Also recorded” adds a separate entry of the source.

How the values were obtained:
[1] = 5-way crossover study in healthy volunteers: adverse events by administration form; type: in vivo, human
From the text: (§1) 23 subject (12 men and 11 women) participated in the trial; due to drop-outs however, not all 23 subjects received all five treatments—see below for details.
The proximal small bowel is approximately the first meter of the jejunum, and the distal small bowel is approximately the last meter of the ileum, including terminal ileum up to the ileo-caecal junction.
The Enterion™ capsule allows targeted delivery of an active substance into any region of the GI tract. The capsule contains a drug reservoir and a separate compartment for a radioactive tracer. The floor of the reservoir acts a piston which is held back against a spring by a polymer filament. By means of gamma scintigraphy (an imaging technique) the exact position of the capsule in the GI tract can be determined real-time. When the capsule has reached its desired position in the GI tract, a magnetic field is applied which causes an antenna in the capsule all to heat up. The heated antenna is in contact with the polymer filament which softens and eventually breaks which sets the piston (reservoir floor) free and rapidly releases the drug. The Enterion™ capsule is available from Partner Tech, UK.
(§2) Blood samples were obtained at regular intervals 240 hours post-dosing of the IR tablet, post-start of the infusion and post-activation of the Enterion™ capsule. […] Additionally, adverse events were recorded. Food (soup) was provided 4 hours post-dose and dinner 10 hours post-dose.
All 23 subjects received treatments A and B; 22 subjects received treatment C; 20 subjects received treatment D; and 19 received treatment E.
The table below summarises the adverse events recorded during the course of the trial.

[2] = 5-way crossover study in healthy volunteers: plasma concentration-time profile; type: in vivo, human
Procedure: as §1, §2
The plasma concentration time profiles are depicted in FIG. 1.

[3] = test system: acetylcholine, norepinephrine, dopamine, and serotonin in brain regions associated with mood regulation; conditions: extracellular levels in rat brains; cited from earlier work
[4] = cited from earlier work
[5] = depressed patients; cited from earlier work
[6] = Regimen B: 20 mg, single oral dose, two 10 mg IR tablets, 23 subjects
[7] = Regimen C: 9 mg iv infusion over 6 hours, 22 subjects
[8] = Regimen D: 20 mg solution via Enterion capsule to proximal small bowel, 20 subjects
[9] = Regimen E: 20 mg solution via Enterion capsule to distal small bowel, 19 subjects

Q: Which Abdominal pain [1, 6] does the source give for `Br.Cc1ccc(Sc2ccccc2N2CCNCC2)c(C)c1` [Compound I HBr, 1-[2-(2,4-dimethyl-phenylsulfanyl)-phenyl]piperazine hydrobromide] here?
A: 2 no of subjects

Q: And the Fatigue [1, 6]?
A: 2 no of subjects

Q: And the Headache [1, 6]?
A: 3 no of subjects

Q: And the “Lightheadedness/postural dizziness (no BP drop)” value [1, 6]?
A: 5 no of subjects

Q: What about the Nausea [1, 6] of the same compound?
A: 9 no of subjects

Q: What about the Retching [1, 6] of the same compound?
A: 1 no of subjects

Q: And the Vomiting [1, 6]?
A: 2 no of subjects

Q: What about the “Abnormal liver function tests” value [1, 7] of the same compound?
A: 1 no of subjects

Q: And the Headache [1, 7]?
A: 2 no of subjects

Q: What about the Nausea [1, 7] of the same compound?
A: 1 no of subjects

Q: And the Postural hypotension [1, 7]?
A: 2 no of subjects

Q: And the Abdominal pain [1, 8]?
A: 1 no of subjects

Q: And the Headache [1, 8]?
A: 1 no of subjects

Q: What about the “Lightheadedness/postural dizziness (no BP drop)” value [1, 8] of the same compound?
A: 1 no of subjects

Q: And the Nausea [1, 8]?
A: 3 no of subjects

Q: And the Postural hypotension [1, 8]?
A: 1 no of subjects

Q: And the Pruritis [1, 8]?
A: 1 no of subjects

Q: What about the Vomiting [1, 8] of the same compound?
A: 1 no of subjects

Q: And the Abdominal pain [1, 9]?
A: 1 no of subjects

Q: What about the Nausea [1, 9] of the same compound?
A: 2 no of subjects

Q: And the Postural hypotension [1, 9]?
A: 3 no of subjects

Q: What about the Rash [1, 9] of the same compound?
A: 1 no of subjects

Q: For `Cc1ccc(Sc2ccccc2N2CCNCC2)c(C)c1` [Compound I, 1-[2-(2,4-dimethyl-phenylsulfanyl)-phenyl]piperazine], which “overall number of adverse events” value ([1]; regimen B, IR tablet) is on record?
A: most adverse events

Q: And the “overall number of adverse events” value ([1]; regimen C, D and E: i.v. infusion, released in the proximal or distal small bowel)?
A: markedly lower number of adverse events

Q: What about the “plasma concentration-time profile, dependence on administration form” value ([2]; IR tablet versus release in the small intestine (FIG. 1, regimens B, D, E)) of the same compound?
A: virtually independent on whether Compound I is administered in an IR tablet or released in the small intestine

Q: And the “characteristics of plasma concentration-time profile” value ([2]; administration in an IR composition)?
A: relative late tmax and a plasma concentration plateau around tmax

Q: What about the “levels of acetylcholine, norepinephrine (noradrenaline), dopamine and serotonin in brain” value [3] of the same compound?
A: increase; also recorded: significant increases

Q: What about the “sleep and sexually related adverse events in depressed patients” value ([4]; clinical trials disclosed in WO 2008/113359) of the same compound?
A: surprisingly low level

Q: And the “efficacy in the treatment of major depressive disorder” value ([4]; dosed at 5 and 10 mg)?
A: efficacious

Q: And the “safety and tolerability in first clinical trial” value ([4]; dosed at 5 and 10 mg)?
A: safe and well-tolerated

Q: Which results are given for `Fc1ccc([C@@H]2CCNC[C@H]2COc2ccc3c(c2)OCO3)cc1` [paroxetine]?
A: nausea with enteric coated, sustained release tablet compared with IR tablet [5]: less nausea; other GI related adverse events such as diarrhea, abnormal ejaculation, female genital disorders and dizziness with enteric coated tablet compared with IR tablet [5]: appeared to increase
